Tested on: human embryonic stem cell line H1
Test: Real-time PCR gene expression, dose and stage of ascorbic acid (Example 12)
Type: cell-based
Method: Cells of the human embryonic stem cell line H1 at various passages (passage 40 to passage 52) were seeded as single cells at a density of 100,000 cells/cm^2 on MATRIGEL™ (1:30 dilution) coated dishes in mTesr™1 media and 10 μM of Y27632. Forty eight hours post seeding, cultures were differentiated into pancreatic endocrine lineage as follows: • a. Stage 1 (Definitive Endoderm (DE)−3 days): Prior to start of DE, the cultures were washed and incubated with incomplete PBS (no Mg or Ca) for 30 seconds followed by addition of the stage 1 media. Human embryonic stem cells cultured as single cells on MATRIGEL™-coated dishes were treated with MCDB-131 medium supplemented with 0.1% fatty acid-free BSA, 0.0012 g/ml sodium bicarbonate, 1× GLUTAMAX™, 5 mM D-Glucose, and 100 ng/ml GDF8 plus 1 μM MCX compound (GSK3B inhibitor) for one day. Cells were then treated with MCDB-131 medium supplemented with 0.1% fatty acid-free BSA, 0.0012 g/ml sodium bicarbonate, 1× GLUTAMAX™, 5 mM glucose, and 100 ng/ml GDF8 plus 100 nM MCX compound for day two, followed by an additional day in MCDB-131 medium supplemented with 0.1% fatty acid-free BSA, 0.0012 g/ml sodium bicarbonate, 1× GLUTAMAX™, 5 mM Glucose, and 100 ng/ml GDF8. • b. Stage 2 (Primitive gut tube−2 days): Stage 1 cells were treated with MCDB-131 medium supplemented with 0.1% fatty acid-free BSA, 0.0012 g/ml sodium bicarbonate, 1× GLUTAMAX™, 5 mM D-Glucose, with or without the addition of 0.25 mM ascorbic acid and 25 ng/ml FGF7 for two days. • c. Stage 3 (Foregut−2 days): Stage 2 cells were treated with MCDB131 medium supplemented with 1:200 dilution of ITS-X, 2.5 mM Glucose, 1× GLUTAMAX™, 0.0015 g/ml sodium bicarbonate, 2% fatty acid-free BSA, 10 ng/ml Activin A, 25 ng/ml FGF7, 0.25 μM SANT-1, +/−0.25 mM ascorbic acid, 1 μM RA, 200 nM TPB, 100 nM LDN-193189 for day 1, followed by treatment with MCDB131 medium supplemented with 1:200 dilution of ITS-X, 2.5 mM Glucose, 1× GLUTAMAX™, 0.0015 g/ml sodium bicarbonate, 2% fatty acid-free BSA, 10 ng/ml Activin A, 25 ng/ml FGF7, 0.25 μM SANT-1, +/−0.25 mM ascorbic acid, 1 μM RA, 200 nM TPB, 10 nM LDN-193189 for an additional day. • d. Stage 4 (Pancreatic foregut precursor-2 days): Stage 3 cells were treated with MCDB131 medium supplemented with 1:200 dilution of ITS-X, 2.5 mM Glucose, 1× GLUTAMAX™, 0.0015 g/ml sodium bicarbonate, 2% fatty acid-free BSA, 0.25 μM SANT-1, 50 nM RA, 200 nM TPB, 50 nM LDN-193189, with or without the addition of 0.25 mM to 1 mM ascorbic acid for two days. • e. […]

[1] = at stage 5, ascorbic acid added at stages 2-4

SMILES: O=C1O[C@H]([C@@H](O)CO)C(O)=C1O [ascorbic acid]
- benefit of 0.5-1 mM as compared to 0.25 mM ascorbic acid (at S4): no significant benefit
- expression of insulin and Pax4 [1]: maintaining
- expression of somatostatin, glucagon, and Pax6 [1]: significantly reduced
- expression of glucagon and somatostatin (at stage S3-5, ascorbic acid added at stage 2): effective in lowering

From patent publication US12215354B2, “Differentiation of human embryonic stem cells into single hormonal insulin positive cells” (Janssen Biotech, Inc., priority 2011, dated 2025)
